Tests used:
[1] = system: electric shock induced amnesia mice; test: Cognitive enhancing effect, step through passive avoidance in electric shock induced amnesia mice; assay type: in vivo, ddY strain male mice; settings: oral, 10 μg/kg
Experimental: In order to examine the influence of the compounds on the learning and memory facilitating, an amnesia model with use of electric shock in a step through type passive avoidance box (PA-M5 model; OBARA IKA-SANGYOSHA) in accordance with the method described by C. Giurgea et al. (Progressive of Neuropsychopharmacology, 1, 235-247 (1977)) was used.
The subject compounds were orally administered at a dose of 1 ng/kg -1 mg/kg in the form of a homogeneous suspension in a 0.5% aqueous carboxymethylcellulose solution to ddY strain male mice (4-5 weeks) 1 hour before acquisition-trial and 1 hour before retrievaltrial. The animal was first placed in the light chamber, and the door at the boundary between the light and dark chamber was opened after 30 seconds. At the same time as the animal stepped into the dark chamber, electric footshock (40 V) was delivered to the floor of the dark chamber so that the animal acquired avoidance response (acquisition-trial). […] That is, the animal was placed again in the light chamber, the door was opened after 30 seconds, and the latency of the animal into the dark -chamber was measured for up to 600 seconds, so that the time was compared with that of the solvent administered group in which amnesia had been caused by electric shock.

[2] = Toxicity test, oral, mice; settings: mouse, in vivo, ddY male mice 5 weeks old
Experimental: Several compounds of the present invention represented by the general formula (I) were administered orally by compulsion to ddY male mice of 5 weeks old (average weight, ca. 20 g).

[3] = system: Renal hypertensive rats; test: Hypotensive effect in renal hypertensive rats (RHR); assay type: in vivo, Spraque-Dawley (SD) male rats; settings: oral, 3 mg/kg
Experimental: Renal hypertensive rats, a model of high-renin hypertension, were prepared according to the method of J. L. Cangiano et al. (Journal of Pharmacology and Experimental Therapeutics, 208, 310-313, 1979). That is, the experiment was conducted with Spraque-Dawley (SD) male rats (250-300 g), which were ligated the left renal artery with a thread under the anesthetic condition, so that the systolic blood pressure was increased more than 150 mmHg on 1 week after the operation. The subject compounds were orally administered in the form of a homogeneous suspension in a 0.5% aqueous carboxymethylcellulose solution, and a mean blood pressure was measured in the same manner as in the paragraph 1-2. Heart rate was counted with a cardiotachmeter triggered by the arterial pulse.

[4] = system: hypertensive action by angiotensin II; test: Inhibition on the hypertensive action by an exogenous angiotensin II in conscious rats; assay type: in vivo, Spraque-Dawley (SD) male rats; settings: oral; for ED50: Rattus norvegicus, within 6 hours after administration, read-out: ED50 (dose required for inhibiting the hypertensive action by angiotensin II to the extent of 50%); for inhibitory effect on the hypertensive action by angiotensin II: dose of 1 mg/kg or less, angiotensin II 0.1 μg/kg i.v.
Text: (§1) The angiotensin II antagonistic activities in vitro were compared on the basis of the intensities (pA2 value) of antagonizing the contraction response to angiotensin II at the isolated thoracic aorta of rabbit. The in vivo activities were examined by comparing the inhibitory effects on the hypertensive action by an exogenous angiotensin II in a non-anesthetized rat and the hypotensive effects of a renal hypertensive rat or a spontaneously hypertensive rat.
Anesthetized Spraque-Dawley (SD) male rats were cannulated into a femoral artery and a femoral vein and used for the experiment at the time when it has elapsed at least 24 hours after the operation. The hypertensive action caused by angiotensin II (0.1 μg/kg) which has been administered through the vein catheter was measured under conscious and unrestrained condition before and after administration of the compound. The artery catheter was connected to a pressure transducer to measure a mean blood pressure, and the subject compounds were orally administered in the form of a homogeneous suspension in a 0.5% aqueous carboxymethyl cellulose solution.
The intensities of the inhibitory effects within 6 hours after administration of the compound were examined on the basis of the dose of the compound required for inhibiting the hypertensive action by angiotensin II to the extent of 50% (ED50 values).

[5] = system: spontaneously hypertensive rats; test: Hypotensive effect in spontaneously hypertensive rats (SHR); assay type: in vivo, male spontaneously hypertensive rats; settings: oral, 10 mg/kg
Experimental: The subject compounds were administered orally in the same manner as in the paragraph 1-3 to male spontaneously hypertensive rats (28 weeks old, Charles-River Co.), which were measured mean blood pressure and heart rate.

[6] = biological target: T1, contraction response to angiotensin II at the isolated thoracic aorta of rabbit (Oryctolagus cuniculus, UniProt P34976); test: In vitro angiotensin II antagonism, isolated rabbit thoracic aorta (Schild pA2); assay type: cell-based; settings: Schild plot
T1 construct: A strip of thoracic aorta of a male rabbit (2.5-3.0 kg) was prepared by the usual method; from tissue; host or cells: rabbit thoracic aorta strip
T1 sequence (P34976 1-359): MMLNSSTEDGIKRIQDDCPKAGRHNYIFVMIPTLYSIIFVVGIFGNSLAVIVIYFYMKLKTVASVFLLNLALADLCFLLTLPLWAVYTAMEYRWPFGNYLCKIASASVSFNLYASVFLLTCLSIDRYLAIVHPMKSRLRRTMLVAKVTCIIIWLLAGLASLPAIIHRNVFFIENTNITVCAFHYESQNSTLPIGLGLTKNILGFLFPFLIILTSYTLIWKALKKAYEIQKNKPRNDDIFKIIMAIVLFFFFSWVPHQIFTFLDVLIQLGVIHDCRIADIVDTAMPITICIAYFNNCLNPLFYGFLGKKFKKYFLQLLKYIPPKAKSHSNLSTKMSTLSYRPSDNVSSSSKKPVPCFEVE
Text: as §1
A strip of thoracic aorta of a male rabbit (2.5-3.0 kg) was prepared by the usual method and suspended in an organ bath containing well oxygenated Krebs-Henseleit solution at 37° C. The pA2 value was calculated according to the method described by H. O. Schild (British Journal of Pharmacology and Chemotherapeutics, 2, 189-206, 1947). A strip treated with 3-5 doses of a subject compound in an amount of 10^-6 M-10^-10 M and a strip treated with no drug were employed for obtaining a dose-response curve by angiotensin II. Log (dose ratio--1) was calculated from the shift of the dose-response curve of the subject compound, and pA2 value was obtained from the Schild plottings.

[7] = system: ddY male mice; test: Antianxiety effect, light and dark box; assay type: in vivo; settings: oral, 0.1 μg/kg, 1 hour
Experimental: (§2) The subject compounds were examined on their antianxiety effect with the light and dark box according to the method described by B. Costall et al. (Pharmacology Biochemistry and Behavior, 32, 777-785, 1989) and with the elevated plus maze by S. Pell et al. (Journal of Neuroscience Methods, 14, 149-167, 1985).
The subject compounds were administered orally to ddY male mice (4-5 weeks old) at a dose of 0.1-1000 μg/kg. After 1 hour they were placed in the light chamber of the light and dark box, and after 10 seconds the door at the boundary between the light chamber and the dark chamber was opened. The behavior of the animals in the light and dark box under a sound-proof condition for four minutes was observed and examined by comparing the measurements of latency to the dark chamber, shuttling between the light and dark chambers and duration in the light chamber with those in the group to which only a solvent was administered. The subject compounds were orally administered in the form of a homogeneous suspension or solution in a 0.5% aqueous carboxymethyl cellulose solution.

[8] = system: SD female rats; settings: rat, in vivo, po, 100 mg/kg
[9] = system: Fisher 344 male rats; test: Antianxiety effect, elevated plus maze; assay type: in vivo; settings: oral, 1 μg/kg, 1 hour
Experimental: as §2
To Fisher 344 male rats (5-6 weeks old), the subject compounds were orally administered at a dose of 1-100 μg/kg in the form of a homogeneous suspension or solution in a 0.5% aqueous carboxymethyl cellulose solution. Among the four arms of the elevated plus maze (a device in which four arms are intersected crosswise and connected together at a height of 50 cm from the floor), the two arms with side walls are referred to as closed arms and the two arms without side walls are referred to as open arms. […] As the indices of the behavior, the latency until stepped out from the arm first placed to the other arm and the durations in the respective arms were measured, and the other behaviors were recorded. Diazepam was used as a control agent, and the drug administered group and the solvent administered group (group to which a 0.5% aqueous carboxymethyl cellulose solution was administered)were compared for the behaviors.

| Compound | latency into the dark chamber (passive avoidance response) [1] | LD50 [2] [mg/kg] | depression of blood pressure [3] | hypotensive effect [3] | ED50 [4] [mg/kg] | inhibitory effect on the hypertensive action by angiotensin II [4] | depression of blood pressure [5] | hypotensive effect [5] | Kb [6] [nM] | duration in the light chamber [7] | latency to the dark chamber [7] | symptom of toxicity [8] | duration out of the closed arm [9] | transitions [9] |
| --- | --- | --- | --- | --- | --- | --- | --- | --- | --- | --- | --- | --- | --- | --- |
| COc1c(OCc2ccc(-c3ccccc3-c3nnn[nH]3)cc2)cc(C)nc1C [Example 11, 3-methoxy-2,6-dimethyl-4-[2'-(tetrazol-5-yl)biphenyl-4-yl]methoxypyridine] | significant prolongation of the latency into the dark chamber | > 1000 | 20-26% | significant long-lasting hypotensive effect | 0.54 | significant inhibitory effects | approximately 20% | significant hypotensive effect | 6.31 | increased | increased |  |  |  |
| CCOC(=O)c1c(OCc2ccc(-c3ccccc3-c3nnn[nH]3)cc2)cc(C)nc1CC [Example 45, 3-ethoxycarbonyl-2-ethyl-6-methyl-4-[2'-(tetrazol-5-yl)-biphenyl-4-yl]methoxypyridine] |  | > 1000 | 20-26% | significant long-lasting hypotensive effect | 0.52 | significant inhibitory effects | approximately 20% | significant hypotensive effect | 6.76 |  |  | no symptom of toxicity was observed | increasing tendency | significant increase |
